# According to patent publication US10364471B2, “Tumor suppressor REC8 as a biomarker for gastric cancer” (The Chinese University of Hong Kong, priority 2017, dated 2019):
# System: REC8 mRNA expression in gastric cancer cell lines
# Experiment: Demethylation treatment with 5-Aza, REC8 mRNA by RT-PCR
# Assay type: cell-based, human
# Conditions: 2 uM 5-Aza for 5 days
# Method: Gastric cancer cells were treated with 2 uM DNA demethylation agent 5-Aza-2′-deoxycytidine (5-Aza) (Sigma-Aldrich, St Louis, Mo.) for 5 days and medium was refreshed every day.
# Total RNA was extracted from cell pellets or tissues using Qiazol® reagent (Qiagen, Valencia, Calif.), and cDNA was synthesized using Transcriptor Reverse Transcriptase (Roche, Indianapolis, Ind.). RT-PCR was performed using the GoTaq® DNA polymerase (Promega). qPCR was performed using SYBR Green master mixture on HT7900 system (Applied Biosystems, Foster City, Calif.). Primers used are listed in Table 5 and also published previously.^7
compound,measurement,setting,value
"Nc1ncn([C@H]2C[C@H](O)[C@@H](CO)O2)c(=O)n1 [5-Aza, 5-Aza-2′-deoxycytidine]",REC8 mRNA expression,AGS with REC8 expression/unmethylated,had no effect
same,REC8 mRNA expression,"cell lines with REC8 down-regulated/methylated (BGC823, SNU719, NCI-N87, MKN28, AGS-EBV)",restored
